US11001561B2, “Pyrimidinone derivatives as SHP2 antagonists” (MERCK PATENT GMBH, priority 2019, dated 2021)
“Also recorded” adds a separate entry of the source. Like-named read-outs stand apart in the source and are kept apart here.

How the values were obtained:
HPAF-2 xenografts = conditions: CB17.SCID mice, 50 mg/kg 23B or 60 mg/kg RMC-4550 daily oral gavage
[1] = molecular target: auto-activated mutant protein SHP2 E76K (Homo sapiens (Human), UniProt Q06124, E76K); assay: SHP2 active mutant E76K biochemical assay with and without activating peptide
Method: The inhibition of SHP2 by compounds of the invention was monitored using the surrogate substrate DiFMUP after protein activation by a peptide bearing two appropriately spaced phosphotyrosine. Full length SHP2 protein (Recombinant HumanSHP-2, E. coli derived Ser2Arg593, N-terminal 6His tag from R&D systems; 0.0.24 nM) was incubated with activating peptide, IRSI_2pY (New England Peptide, 140 nM) and DiFMUP (molecular probes, 80 uM) at RT in buffer (HEPES pH 7.2 60 mM, DDT 5 mM, KCl 75 mM, NaCl 75 mM, EDTA 1 mM, Tween 20 0.05%) in presence of compound (10 concentrations range, top concentration 50 μM) for 60 min. The generation of the DiFMU product by activated SHP2 was monitored through Fluorescence measurement with a PerkinElmer Envision reader. The inhibitor dose response curves were analyzed with Genedata Screener.

EBC-1 xenografts = assay: EBC-1 xenograft (cMET amplified non-small cell lung cancer); type: in vivo; conditions: CD-1 nude mice, 100 mg/kg daily oral gavage
Source text: CD-1 nude mice were inoculated with 5 million EBC-1 cells.

[2] = molecular target: Full length SHP2 protein (Recombinant Human SHP-2) (Homo sapiens (Human), UniProt Q06124); assay: SHP2 biochemical assay (DiFMUP substrate, activating peptide IRSI_2pY)
Method: The inhibition of SHP2 by compounds of the invention was monitored using the surrogate substrate DiFMUP after protein activation by a peptide bearing two appropriately spaced phosphotyrosine. […] The generation of the DiFMU product by activated SHP2 was monitored through Fluorescence measurement with a PerkinElmer Envision reader. The inhibitor dose response curves were analyzed with Genedata Screener.

[3] = Pharmacokinetics in mouse (oral / intravenous); type: in vivo; conditions: female CD1 mice; for clearance / Vd: mouse, plasma, intravenous; for Vd: read-out: Vd ss
Method: Female CD1 mice (N=3) received a single oral (gavage) or a single intravenous (bolus) injection of compound. […] Consecutive blood samples were taken sub-lingually under isofluorane inhalation from animals after 0.083 (IV), 0.25, 0.5, 1, 2, 4, 6 and 24 h and were further processed to obtain plasma. Samples were protein precipitated and analysed by LC/MS/MS.

[4] = molecular target: Recombinant human SHP2 protein (2-593) (Homo sapiens (Human), UniProt Q06124); assay: SPR binding assay
Method: The immobilization buffer contained 20 mM HEPES/NaOH (pH 7.4), 150 mM NaCl, 0.05% Tween 20. Inhibitors (stored as 10 mM stock solutions in 100% DMSO) were diluted in running buffer (20 mM HEPES/NaOH pH 7.4, 150 mM NaCl, 1 mM DTT, 5 mM MgCl2 0.1 mM EGTA, 0.05% Tween 20, 2% DMSO @25° C.) and analysed with a Biacore 4000 (Biacore AB, GE Healthcare Life Sciences, Uppsala, Sweden) using a 2-fold dilution series. The highest compound concentration varied according to the expected dissociation constant, but all compounds were tested at 10 different concentrations. Interaction analysis cycles were run at 30 μL/min and consisted of a 140 s sample injection followed by 600 s of buffer flow (dissociation phase). All sensograms were evaluated by first subtracting the binding response recorded from the control surface (reference spot), followed by subtracting a buffer blank injection. To determine kinetic rate constants, data sets were fitted to a simple 1:1 interaction model including a term for mass transport using numerical integration and nonlinear curve fitting. Equilibrium analysis was performed by fitting the response at the end of the association phase to a single-site binding isotherm.

pERK1/2 in KYSE520 cells = assay: p-Erk cellular assay in KYSE520 (Mesoscale); type: cell-based; conditions: read-out: pERK1/2 in Cell KYSE520 IC50
Method: p-Erk Cellular Assay in KYSE520: The effect of SHP2 inhibitors on pERK level was assessed using phospho-specific antibody using Mesoscale quantification platform. For measuring change in pERK levels using mesoscale, 30,000 cells of KYSE520 cells were plated in 96-well tissue culture treated plate in 175 μl volume of media. After an overnight incubation at 37° C., various SHP2 inhibitors were added in different concentration to each well maintaining duplicate wells across plates and incubated with compounds for 2 h at 37° C. followed by a wash with ice cold PBS buffer. The cells were then lysed in lysis buffer and processed and analyzed for p-ERK/ERK as per manufacturer's instructions (Mesoscale discovery, cat No. […]-3).

[5] = molecular target: Kv11.1 (hERG) ion channel (Homo sapiens (Human), UniProt Q12809); assay: hERG patch clamp in Kv11.1 transfected HEK293 cells; type: cell-based
Method: Inhibition of the ion channel hErg (or Kv11.1) current causes QT interval prolongation resulting in potentially fatal ventricular tachyarrhythmia called Torsade de Pointes.
hERG ion channel activity was assessed using a patch clamp technique in stable Kv11.1 (hERG) transfected human embryonic kidney cell line (HEK293). Whole cell recordings were carried out with an automated patch clamp device Patchliner™ from Nanion Technologies, Munich following manufacturer recommendation. Different concentrations of the test compound or reference, quinidine, were applied to whole cells suspension and current was measured using a pulse pattern with fixed amplitudes.

Kyse-520 xenografts = assay: Kyse-520 xenograft (EGFR amplified esophageal cancer)
Source text: H2D Rag2 mice were inoculated with 5 million KYSE-520 cells mixed with matrigel.
In vivo efficacy of compound 74a in an EGFR amplified setting was investigated in Kyse-520 xenografts. H2D Rag2 mice were inoculated with 5 million KYSE-520 cells mixed with matrigel.

MiaPaCa-2 xenografts = type: in vivo, mouse; conditions: H2D Rag2 mice, 50 or 100 mg/kg daily oral gavage
Source text: H2D Rag2 mice were inoculated with 3 million MiaPaCa-2 cells.

U87-MG xenografts = assay: U87-MG xenograft (PTEN LOF glioblastoma); type: in vivo, mouse; conditions: CD-1 nude mice, 50 mg/kg daily oral gavage, FIG. 6
Source text: CD-1 nude mice were inoculated with 10 million U87-MG cells.

[6] = system: MCP-1 production in U937 cells; assay: Cytokine release assay in U937 cells (MCP-1 AlphaLISA, IL-6 stimulation); type: cell-based; conditions: Homo sapiens, U-937; U937 cells stimulated with IL-6 (50 ng/mL) overnight
Method: Selected compounds were tested in a cytokine release assay in monocytic cells (U937) to test their anti-inflammatory properties. Cells were plated in a 96-well cell culture plate using serum-free media. The cells were treated with indicated concentrations of SHP-2 inhibitors for 30 minutes followed by overnight stimulation with recombinant IL-6 (50 ng/mL). The MCP-1 production was measured in the culture supernatant using a MCP-1 AlphaLISA kit (Perkin Elmer).

[7] = SHP-2 biochemical assay IC50 (μM), activating peptide IRSI_2pY 140 nM, DiFMUP, 60 min

Recombinant human SHP2 protein (2-593), sequence (Q06124 2-593): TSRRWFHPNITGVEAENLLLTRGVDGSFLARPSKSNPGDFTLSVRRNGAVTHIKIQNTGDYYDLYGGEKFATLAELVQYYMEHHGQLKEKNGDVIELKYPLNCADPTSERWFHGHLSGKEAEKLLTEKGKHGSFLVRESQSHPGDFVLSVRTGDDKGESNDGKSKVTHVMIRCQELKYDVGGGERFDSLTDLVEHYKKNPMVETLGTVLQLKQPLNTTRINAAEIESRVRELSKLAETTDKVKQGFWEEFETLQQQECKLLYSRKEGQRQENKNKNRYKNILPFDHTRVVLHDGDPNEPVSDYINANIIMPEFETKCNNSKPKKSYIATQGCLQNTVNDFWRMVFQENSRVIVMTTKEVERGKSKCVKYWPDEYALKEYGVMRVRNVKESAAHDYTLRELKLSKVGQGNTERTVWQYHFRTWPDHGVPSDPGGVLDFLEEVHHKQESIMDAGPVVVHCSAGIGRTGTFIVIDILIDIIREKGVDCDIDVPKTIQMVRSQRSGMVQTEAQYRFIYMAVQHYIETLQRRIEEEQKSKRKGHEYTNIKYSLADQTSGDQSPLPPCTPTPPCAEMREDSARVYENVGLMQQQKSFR
Full length SHP2 protein (Recombinant Human SHP-2), sequence (Q06124 2-593): as above
Kv11.1 (hERG) ion channel, sequence (Q12809 whole entry): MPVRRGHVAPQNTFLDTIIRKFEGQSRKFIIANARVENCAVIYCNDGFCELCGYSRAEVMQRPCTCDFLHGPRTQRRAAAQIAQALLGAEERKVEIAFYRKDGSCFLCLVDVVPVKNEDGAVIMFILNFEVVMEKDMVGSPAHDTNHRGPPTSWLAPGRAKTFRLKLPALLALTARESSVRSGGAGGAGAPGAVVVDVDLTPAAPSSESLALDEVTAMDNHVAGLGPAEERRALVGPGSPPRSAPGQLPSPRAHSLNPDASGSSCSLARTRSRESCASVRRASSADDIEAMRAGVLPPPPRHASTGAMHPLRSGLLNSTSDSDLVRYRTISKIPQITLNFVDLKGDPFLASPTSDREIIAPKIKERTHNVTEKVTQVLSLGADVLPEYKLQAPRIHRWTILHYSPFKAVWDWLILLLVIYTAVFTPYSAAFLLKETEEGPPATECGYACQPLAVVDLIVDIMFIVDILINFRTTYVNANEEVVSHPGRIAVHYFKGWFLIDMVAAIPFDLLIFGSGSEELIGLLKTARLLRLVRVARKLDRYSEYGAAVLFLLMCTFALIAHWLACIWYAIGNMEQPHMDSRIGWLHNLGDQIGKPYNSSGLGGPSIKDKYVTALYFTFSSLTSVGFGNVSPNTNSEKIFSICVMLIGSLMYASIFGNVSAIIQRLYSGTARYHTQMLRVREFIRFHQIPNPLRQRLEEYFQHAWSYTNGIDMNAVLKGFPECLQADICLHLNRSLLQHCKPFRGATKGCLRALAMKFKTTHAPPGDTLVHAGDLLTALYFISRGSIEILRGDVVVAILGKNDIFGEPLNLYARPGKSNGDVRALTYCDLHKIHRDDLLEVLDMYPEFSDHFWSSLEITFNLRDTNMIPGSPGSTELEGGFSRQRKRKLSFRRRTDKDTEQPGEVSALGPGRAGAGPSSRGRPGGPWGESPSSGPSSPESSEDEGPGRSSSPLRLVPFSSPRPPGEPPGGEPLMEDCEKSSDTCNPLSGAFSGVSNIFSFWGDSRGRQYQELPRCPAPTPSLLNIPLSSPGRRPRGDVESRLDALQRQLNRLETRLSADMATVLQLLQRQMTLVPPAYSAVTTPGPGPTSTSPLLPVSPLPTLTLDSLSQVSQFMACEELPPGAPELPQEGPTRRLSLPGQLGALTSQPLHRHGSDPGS
auto-activated mutant protein SHP2 E76K, sequence (Q06124 whole entry E76K): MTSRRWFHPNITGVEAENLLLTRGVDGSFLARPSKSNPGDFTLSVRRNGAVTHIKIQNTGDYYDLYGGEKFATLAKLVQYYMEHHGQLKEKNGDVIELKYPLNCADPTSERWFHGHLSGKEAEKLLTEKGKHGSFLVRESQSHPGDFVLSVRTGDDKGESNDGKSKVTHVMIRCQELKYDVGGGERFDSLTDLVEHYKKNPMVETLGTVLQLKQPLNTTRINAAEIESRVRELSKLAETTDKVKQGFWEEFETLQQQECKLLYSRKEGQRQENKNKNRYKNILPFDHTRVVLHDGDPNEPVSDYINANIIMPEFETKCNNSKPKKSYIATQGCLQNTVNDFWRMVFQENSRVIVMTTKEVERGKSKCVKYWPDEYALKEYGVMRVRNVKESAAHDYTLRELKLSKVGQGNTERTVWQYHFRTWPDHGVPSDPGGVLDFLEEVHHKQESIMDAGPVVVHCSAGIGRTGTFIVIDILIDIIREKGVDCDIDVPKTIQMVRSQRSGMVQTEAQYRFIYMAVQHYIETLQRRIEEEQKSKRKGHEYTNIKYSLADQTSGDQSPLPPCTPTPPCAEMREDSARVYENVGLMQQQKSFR

Cc1c(N2CCC3(CC2)CO[C@@H](C)[C@H]3N)nc(C)n(-c2cccc(Cl)c2Cl)c1=O (single isomer, unassigned) [Compound 23b]
tolerability (HPAF-2 xenografts): All doses were well tolerated | tumor inhibition (HPAF-2 xenografts; FIG. 5): Significant tumor inhibition | IC50 ([1]; SHP-2 E76Z IC50 (nM) No peptide, without activating peptide): 21 nM | IC50 ([1]; with activating peptide IRSI_2pY 140 nM, read-out: SHP-2 E76Z IC50 (nM) peptide): 12 nM | tolerability (EBC-1 xenografts): All doses were well tolerated | tumor growth inhibition (EBC-1 xenografts; FIG. 7): reduces tumor growth; also recorded: Significant tumor growth inhibition | IC50 ([2]; SHP-2 IC50 (nM) peptide, wild-type SHP-2, with activating peptide): 12 nM | IC50 [2, 7]: 9 nM | Fz [3]: 100% | clearance [3]: 15.5 mL/min/kg | Vd [3]: 4.64 L/kg | Kd [4]: 7.14 nM | IC50 (pERK1/2 in KYSE520 cells; Homo sapiens, KYSE-520, 2 h): 94 nM | Ki [5]: > 10000 nM | tolerability (Kyse-520 xenografts; H2D Rag2 mice, 10, 30 or 100 mg/kg daily oral gavage): All doses were well tolerated | tumor growth inhibition (Kyse-520 xenografts; H2D Rag2 mice, 10, 30 or 100 mg/kg daily oral gavage, FIG. 2): multiple dosage levels reduce growth of the tumor a significant amount; also recorded: dose-dependent significant tumor growth inhibition | tolerability (MiaPaCa-2 xenografts): All doses were well tolerated | tumor growth / regression (U87-MG xenografts): reduces tumor size as compared to baseline; also recorded: Tumor regression

Cc1c(N2CCC3(CC2)Cc2ccccc2[C@H]3N)nc(C)n(-c2cccc(Cl)c2Cl)c1=O [Compound 74a, (3M)-6-[(1S)-1-amino-1,3-dihydrospiro[indene-2,4′-piperidin]-1′-yl]-3-(2,3-dichlorophenyl)-2,5-dimethyl-3,4-dihydropyrimidin-4-one]
Fz [3]: 100% | clearance [3]: 8.33 mL/min/kg | Vd [3]: 5.1 L/kg | koff ([4]; SPR, 25° C.): < 0.0001 s⁻¹ | residence time ([4]; SPR, 25° C.): > 160 min | IC50 (pERK1/2 in KYSE520 cells; 2 h): 2 nM | Ki [5]: 1200 nM | Split between hErg and cell activity Ki (patch Clamp)/IC50 (KYSE) [5]: 704 | tolerability (Kyse-520 xenografts; H2D Rag2 mice, 0.8, 2.5 or 8 mg/kg daily oral gavage): All doses were well tolerated

Cc1c(N2CCC3(CC2)C[C@@H](C)C[C@H]3N)nc(C)n(-c2cccc(Cl)c2Cl)c1=O [Compound 77, (3M)-6-[(1R,3R)-1-amino-3-methyl-8-azaspiro[4.5]decan-8-yl]-3-(2,3-dichlorophenyl)-2,5-dimethyl-3,4-dihydropyrimidin-4-one]
IC50 [2, 7]: 6 nM | IC50 (pERK1/2 in KYSE520 cells; Homo sapiens, KYSE-520, 2 h): 74 nM | IC50 [6]: 731 nM
